Key:
[1] = system: Human immunodeficiency virus 1; experiment: Antiviral activity against wild type HIV1 NLRepRlucP373S infected in human MT2 cells after 4 to 5 days in presence of 15 mg/ml HSA by luciferase report gene based multiple cycle drug susceptibility assay; assay type: functional, organism-based; conditions: Human immunodeficiency virus 1, NLRepRlucP373S
[2] = Clearance in cannula implanted rat at 1 mg/kg, iv by LC-MS/MS; assay type: ADME, organism-based; conditions: in vivo
[3] = system: Human immunodeficiency virus 1; experiment: Ratio of EC50 for HIV1 NLRepRlucP373S infected in human MT2 cells in presence of HSA to EC50 for HIV1 NLRepRlucP373S infected in human MT2 cells in absence of HSA; assay type: functional
[4] = Half life in rat liver microsomes at 0.5 uM by LC-MS/MS analysis in presence of NADPH; assay type: ADME
[5] = system: Human immunodeficiency virus 1; experiment: Antiviral activity against wild type HIV1 NLRepRlucP373S infected in human MT2 cells after 4 to 5 days by luciferase report gene based multiple cycle drug susceptibility assay; assay type: functional, organism-based; conditions: Human immunodeficiency virus 1, NLRepRlucP373S
[6] = Cmax in rat at 5 mg/kg, po by LC-MS/MS; assay type: ADME, organism-based; design: dose 5 mg/kg, route oral; conditions: in vivo
[7] = Oral bioavailability in rat at 5 mg/kg by LC-MS/MS; assay type: ADME, organism-based; conditions: in vivo
[8] = Half life in human liver microsomes at 0.5 uM by LC-MS/MS analysis in presence of NADPH; assay type: ADME
[9] = system: Human immunodeficiency virus 1; experiment: Antiviral activity against HIV1 containing gag V370A mutant infected in human MT2 cells after 4 to 5 days by luciferase report gene based multiple cycle drug susceptibility assay; assay type: functional, organism-based; conditions: Human immunodeficiency virus 1, MT2
[10] = Cytotoxicity against human MT2 cells assessed as cell viability by redox dye assay; assay type: cell-based
[11] = Solubility of the compound; assay type: physicochemical
[12] = Tmax in rat at 5 mg/kg, po by LC-MS/MS; assay type: ADME, organism-based; conditions: in vivo
[13] = Volume of distribution in steady state in cannula implanted rat at 1 mg/kg, iv by LC-MS/MS; assay type: ADME, organism-based; conditions: in vivo, read-out: Vdss
[14] = AUC(0 to 6 hrs) in rat at 5 mg/kg, po by LC-MS/MS; assay type: ADME, organism-based; design: time < 6 hr, dose 5 mg/kg, route oral; conditions: in vivo
[15] = system: Human immunodeficiency virus 1; experiment: Antiviral activity against wild type HIV1 NLRepRlucP373S infected in human MT2 cells after 4 to 5 days in presence of 27 mg/ml HSA by luciferase report gene based multiple cycle drug susceptibility assay; assay type: functional, organism-based; conditions: Human immunodeficiency virus 1, NLRepRlucP373S
HEK-293T = experiment: Binding affinity to HIV1 Gag polyprotein assessed as protease-mediated p25-Spacer peptide 1 cleavage in HEK293T cells by measuring […] ratio at 2 uM by Western blot analysis; assay type: cell-based; conditions: Human immunodeficiency virus 1
[16] = Displacement of [3H]-dihydro-bevirimat from HIV1 Gag polyprotein virus like particles after 3 hrs; design: species or system Human immunodeficiency virus 1
[17] = Protein binding of the compound in plasma (unknown origin); assay type: ADME, cell-free; conditions: read-out: PB

Row | SMILES | EC50 [1] [nM] | clearance [2] [mL/min/kg] | Ratio EC50 [3] | half-life at 0.5 µM [4] [h] | EC50 [5] [nM] | Cmax [6] [nM] | bioavailability [7] [%] | half-life at 0.5 µM [8] [h] | EC50 [9] [nM] | CC50 [10] [nM] | solubility [11] | Tmax [12] [h] | Vd [13] [L/kg] | AUC(0-t) at 6 h [14] [µM·h] | EC50 [15] [nM] | Ratio (HEK-293T) | IC50 [16] [nM] | fraction unbound [17]
1 | C=C(C)[C@@H]1CC[C@]2(CO)CC[C@]3(C)[C@H](CC[C@@H]4[C@@]5(C)CC=C(c6ccc(C(=O)O)cc6)C(C)(C)[C@@H]5CC[C@]43C)[C@@H]12 | 27 | 2.1 | 2.5 | 2 | 11 | 590 | 4 | 2 | 212 | 9650 | Insoluble | 5 | 0.5 | 2.14 |  |  |  | 
2 | C=C(C)[C@@H]1CC[C@]2(C(=O)O)CC[C@]3(C)[C@H](CC[C@@H]4[C@@]5(C)CC=C(c6ccc(C(=O)O)cc6)C(C)(C)[C@@H]5CC[C@]43C)[C@@H]12 |  | 1 |  | 2 |  | 1310 | 4 | 2 |  | 27200 | Insoluble | 4 | 0.2 | 5.72 | 310 | 1.6 | 27 | 
3 | C=C(C)[C@@H]1CC[C@]2(C(=O)O)CC[C@]3(C)[C@H](CC[C@@H]4[C@@]5(C)CC[C@H](OC(=O)CC(C)(C)C(=O)O)C(C)(C)[C@@H]5CC[C@]43C)[C@@H]12 [BEVIRIMAT] |  | 4 |  |  |  | 2590 | 18 |  |  |  |  | 0.3 |  |  |  |  |  | < 0.001
4 | C=C(C)[C@@H]1CC[C@]2(C(=O)O)CC[C@]3(C)[C@H](CC[C@@H]4[C@@]5(C)CC=C(c6ccc(C(=O)O)c(F)c6)C(C)(C)[C@@H]5CC[C@]43C)[C@@H]12 | 67 |  | 3.7 |  | 18 |  |  |  | 36 | 10100 |  |  |  |  |  |  |  | 
5 | C=C(C)[C@@H]1CC[C@]2(CO)CC[C@]3(C)[C@H](CC[C@@H]4[C@@]5(C)CC=C(c6ccc(C(=O)O)c(Cl)c6)C(C)(C)[C@@H]5CC[C@]43C)[C@@H]12 | 94 |  | 3.9 |  | 24 |  |  |  | 262 | 1970 |  |  |  |  |  |  |  | 
6 | C=C(C)[C@@H]1CC[C@]2(CO)CC[C@]3(C)[C@H](CC[C@@H]4[C@@]5(C)CC=C(c6ccc(C(=O)O)c(OC)c6)C(C)(C)[C@@H]5CC[C@]43C)[C@@H]12 | 1190 |  | 2.3 |  | 513 |  |  |  | > 4000 | 28700 |  |  |  |  |  |  |  | 

From ChEMBL document CHEMBL3774389, “C-3 benzoic acid derivatives of C-3 deoxybetulinic acid and deoxybetulin as HIV-1 maturation inhibitors” (Bioorg Med Chem, 2016)
